In this experiment the target is T1, TAAR1 (Mus musculus, UniProt Q923Y8).
T1 construct: expressed in transfected cells; host or cells: HEK293 (ATCC # CRL-1573), stably transfected with pIRESneo2 expression plasmid; membranes prepared
As to the kind of experiment: Radioligand binding assay on membranes of HEK293 cells stably expressing TAAR1. The settings on record: for Ki: mouse TAAR1, radioligand [3H]-rac-2-(1,2,3,4-tetrahydro-1-naphthyl)-2-imidazoline at 60 nM, 4° C., 30 min. The procedure: Construction of TAAR Expression Plasmids and Stably Transfected Cell Lines
For the construction of expression plasmids the coding sequences of human, rat and mouse TAAR 1 were amplified from genomic DNA essentially as described by Lindemann et al.. The Expand High Fidelity PCR System (Roche Diagnostics) was used with 1.5 mM Mg^2+ and purified PCR products were cloned into pCR2.1-TOPO cloning vector (Invitrogen) following the instructions of the manufacturer. PCR products were subcloned into the pIRESneo2 vector (BD Clontech, Palo Alto, Calif.), and expression vectors were sequence verified before introduction in cell lines.
HEK293 cells (ATCC # CRL-1573) were cultured essentially as described Lindemann et al. (2005). For the generation of stably transfected cell lines HEK293 cells were transfected with the pIRESneo2 expression plasmids containing the TAAR coding sequences (described above) with Lipofectamine 2000 (Invitrogen) according to the instructions of the manufacturer, and 24 hrs post transfection the culture medium was supplemented with 1 mg/ml G418 (Sigma, Buchs, Switzerland). After a culture period of about 10 d clones were isolated, expanded and tested for responsiveness to trace amines (all compounds purchased from Sigma) with the cAMP Biotrak Enzyme immunoassay (EIA) System (Amersham) following the non-acetylation EIA procedure provided by the manufacturer.
Membrane Preparation and Radioligand Binding
Cells at confluence were rinsed with ice-cold phosphate buffered saline without Ca^2+ and Mg^2+ containing 10 mM EDTA and pelleted by centrifugation at 1000 rpm for 5 min at 4° C. The pellet was then washed twice with ice-cold phosphate buffered saline and cell pellet was frozen immediately by immersion in liquid nitrogen and stored until use at −80° C. Cell pellet was then suspended in 20 ml HEPES-NaOH (20 mM), pH 7.4 containing 10 mM EDTA, and homogenized with a Polytron (PT 3000, Kinematica) at 10,000 rpm for 10 s. The homogenate was centrifuged at 48,000×g for 30 min at 4° C. and the pellet resuspended in 20 ml HEPES-NaOH (20 mM), pH 7.4 containing 0.1 mM EDTA (buffer A), and homogenized with a Polytron at 10,000 rpm for 10 s. The homogenate was then centrifuged at 48,000×g for 30 min at 4° C. and the pellet resuspended in 20 ml buffer A, and homogenized with a Polytron at 10,000 rpm for 10 s. Protein concentration was determined by the method of Pierce (Rockford, Ill.). The homogenate was then centrifuged at 48,000×g for 10 min at 4° C., resuspended in HEPES-NaOH (20 mM), pH 7.0 including MgCl2 (10 mM) and […] homogenized with a Polytron at 10,000 rpm for 10 s.
Binding assay was performed at 4° C. in a final volume of 1 ml, and with an incubation time of 30 min. The radioligand [^3H]-rac-2-(1,2,3,4-tetrahydro-1-naphthyl)-2-imidazoline was used at a concentration equal to the calculated Kd value of 60 nM to give a bound at around 0.1% of the total added radioligand concentration, and a specific binding which represented approximately 70-80% of the total binding. Non-specific binding was defined as the amount of [^3H]-rac-2-(1,2,3,4-tetrahydro-1-naphthyl)-2-imidazoline bound in the presence of the appropriate unlabelled ligand (10 μM). Competing ligands were tested in a wide range of concentrations (10 pM-30 μM). […] Each experiment was performed in duplicate. All incubations were terminated by rapid filtration through UniFilter-96 plates (Packard Instrument Company) and glass filter GF/C, pre-soaked for at least 2 h in polyethylenimine 0.3%, and using a Filtermate 96 Cell Harvester (Packard Instrument Company). The tubes and filters were then washed 3 times with 1 ml aliquots of cold buffer B. Filters were not dried and soaked in Ultima gold (45 μl/well, Packard Instrument Company) and bound radioactivity was counted by a TopCount Microplate Scintillation Counter (Packard Instrument Company).

The text below walks through data of patent US7652055B2, “2-imidazolines” (Hoffman-La Roche Inc., priority 2007, dated 2010).

One may read the Ki as a dissociation constant, usually derived from enzyme kinetics or from competition with a known ligand. As usually defined, the Kd is the concentration at which binding is half-saturated.

T1 sequence (Q923Y8 whole entry): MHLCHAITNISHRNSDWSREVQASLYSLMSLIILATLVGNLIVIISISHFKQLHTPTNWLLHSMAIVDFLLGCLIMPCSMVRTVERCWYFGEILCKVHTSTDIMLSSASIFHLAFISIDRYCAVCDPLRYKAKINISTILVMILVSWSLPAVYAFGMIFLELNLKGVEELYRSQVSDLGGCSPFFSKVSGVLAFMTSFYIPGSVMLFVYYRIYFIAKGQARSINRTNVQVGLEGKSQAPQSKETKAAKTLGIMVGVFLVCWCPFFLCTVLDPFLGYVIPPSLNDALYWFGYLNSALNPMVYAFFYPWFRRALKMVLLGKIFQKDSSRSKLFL

`Clc1cccc(OCC2=NCCN2)c1Cl` [Example K12, 2-(2,3-Dichloro-phenoxymethyl)-4,5-dihydro-1H-imidazole]: the inhibitory constant (Ki) is 0.0063 µM.
In turn, `c1ccc(Cc2cccc(OCC3=NCCN3)c2)cc1` [Example 14, 2-(3-Benzyl-phenoxymethyl)-4,5-dihydro-1H-imidazole] yielded a Ki of 0.0054 µM.
As for `Clc1ccc(NCC2=NCCN2)cc1` [Example K1, (4-Chloro-phenyl)-(4,5-dihydro-1H-imidazol-2-ylmethyl)-amine], the affinity corresponds to a Ki of 0.023 µM.
Take `c1ccc(CCCc2ccc(OCC3=NCCN3)cc2)cc1` [Example 15, 2-[4-(3-Phenyl-propyl)-phenoxymethyl]-4,5-dihydro-1H-imidazole]: the Ki turned out to be 0.0441 µM.
Molecule `CC(C)Oc1ccc(C(=O)CCc2ccc(OC(C)C3=NCCN3)cc2)cc1` (stereo not drawn) [Example 12, 3-{4-[1-(4,5-Dihydro-1H-imidazol-2-yl)-ethoxy]-phenyl}-1-(4-isopropoxy-phenyl)-propan-1-one] returned a Ki of 0.0158 µM.
Molecule `Cc1c(NCC2=NCCN2)ccc2occc12` [Example 7, (4,5-Dihydro-1H-imidazol-2-ylmethyl)-(4-methyl-benzofuran-5-yl)-amine] displayed a Ki of 0.0028 µM.
Same read-out and setting: then `Clc1ccc(OCC2=NCCN2)cc1Cl` [Example 27, 2-(3,4-Dichloro-phenoxymethyl)-4,5-dihydro-1H-imidazole], with 0.0329 µM; and `c1ccc(C2CC2)c(OCC2=NCCN2)c1` [Example K20, 2-(2-Cyclopropyl-phenoxymethyl)-4,5-dihydro-1H-imidazole], with 0.0325 µM.
For the molecule `CC(Oc1c(Cl)cccc1Cl)C1=NCCN1` (stereo not drawn) [Example K21, 2-[1-(2,6-Dichloro-phenoxy)-ethyl]-4,5-dihydro-1H-imidazole], the affinity corresponds to a Ki of 0.0262 µM.
On to `c1cc2ccc(OCC3=NCCN3)cc2o1` [Example 17, 2-(Benzofuran-6-yloxymethyl)-4,5-dihydro-1H-imidazole], for which the Ki worked out at 0.0372 µM.
For the molecule `Cc1c(Cl)cccc1NNC1=NCCN1` [Example K25, N-(3-Chloro-2-methyl-phenyl)-N′-(4,5-dihydro-1H-imidazol-2-yl)-hydrazine], the Ki turned out to be 0.0057 µM.
`CN(CC1=NCCN1)c1ccc(Cl)c(Cl)c1` [Example 4, (3,4-Dichloro-phenyl)-(4,5-dihydro-1H-imidazol-2-ylmethyl)-methyl-amine] displayed a Ki of 0.0059 µM.
In turn, `Fc1cccc(OCC2=NCCN2)c1F` [Example 21, 2-(2,3-Difluoro-phenoxymethyl)-4,5-dihydro-1H-imidazole] gave an inhibition constant (Ki) of 0.0341 µM.
`Cc1c(O)ccc(OCC2=NCCN2)c1C` [Example 24, 4-(4,5-Dihydro-1H-imidazol-2-ylmethoxy)-2,3-dimethyl-phenol] displayed an inhibition constant Ki of 0.093 µM.
Still for that read-out and setting: then `Fc1cc(NCC2=NCCN2)ccc1Cl` [Example 2, (4-Chloro-3-fluoro-phenyl)-(4,5-dihydro-1H-imidazol-2-ylmethyl)-amine], with 0.0011 µM.
`Clc1cccc(SCC2=NCCN2)c1Cl` [Example 31, 2-(2,3-Dichloro-phenylsulfanylmethyl)-4,5-dihydro-1H-imidazole] gave a Ki of 0.0075 µM.
Still for that read-out and setting: then `COc1ccccc1N(C)CC1=NCCN1` [Example 9, (4,5-Dihydro-1H-imidazol-2-ylmethyl)-(2-methoxy-phenyl)-methyl-amine], with 0.0432 µM.
The molecule `CN(CC1=NCCN1)c1cccc(Cl)c1` [Example 3, (3-Chloro-phenyl)-(4,5-dihydro-1H-imidazol-2-ylmethyl)-methyl-amine] registered an inhibition constant (Ki) of 0.0084 µM.
For `Clc1cccc(NCC2=NCCN2)c1` [Example K2, (3-Chloro-phenyl)-(4,5-dihydro-1H-imidazol-2-ylmethyl)-amine], the Ki stood at 0.007 µM.
Still for that read-out and setting: with `Clc1ccccc1OCC1=NCCN1` [Example K10, 2-(2-Chloro-phenoxymethyl)-4,5-dihydro-1H-imidazole] the figure was 0.064 µM.
`c1ccc2c(c1)CCCC2C1=NCCN1` (racemic) [[^3H]-rac-2-(1,2,3,4-tetrahydro-1-naphthyl)-2-imidazoline, reference compound]: for the setting “radioligand of the binding assay, TAAR1 species not stated at this place, read-out: calculated Kd value of the radioligand”, the Kd is 60 nM.
Take `CC(C)Oc1ccc(OCc2ccc(OCC3=NCCN3)cc2)cc1` [Example 13, 2-[4-(4-Isopropoxy-phenoxymethyl)-phenoxymethyl]-4,5-dihydro-1H-imidazole]: the affinity corresponds to a Ki of 0.025 µM.
The same measure, in the same setting: then `FC(F)(F)c1cccc(OCC2=NCCN2)c1` [Example K17, 2-(3-Trifluoromethyl-phenoxymethyl)-4,5-dihydro-1H-imidazole], with 0.0913 µM; and `Clc1cc(NCC2=NCCN2)ccc1Br` [Example 1, (4-Bromo-3-chloro-phenyl)-(4,5-dihydro-1H-imidazol-2-ylmethyl)-amine], with 0.0022 µM; and `Cc1ccc(NNC2=NCCN2)cc1C` [Example 35, N-(4,5-Dihydro-1H-imidazol-2-yl)-N′-(3,4-dimethyl-phenyl)-hydrazine], with 0.044 µM.
The molecule `FC(F)(F)c1cccc(OCC2=NCCN2)c1Cl` [Example 20, 2-(2-Chloro-3-trifluoromethyl-phenoxymethyl)-4,5-dihydro-1H-imidazole] gave a Ki of 0.0016 µM.
The same measure, in the same setting: then `COc1ccc(Cc2ccc(NCC3=NCCN3)cc2)cc1` [Example 8, (4,5-Dihydro-1H-imidazol-2-ylmethyl)-[4-(4-methoxy-benzyl)-phenyl]-amine], with 0.0443 µM.
